Reference: patent US20180312493A1, “Antibiotic Compounds, Pharmaceutical Formulations Thereof And Methods And Uses Therefor” (Simon Fraser University, priority 2015, published 2018)
pIC50: −log10 of the molar value. In brackets after ≈: the same amount, converted by molar mass. Read-outs that look alike come from different tables or passages of the source.

What was measured:
S. aureus (ATCC29213) = assay: In vitro susceptibility, broth microdilution (MIC); assay type: cell-based; conditions: Staphylococcus aureus
Text: Epidemic methicillin resistant S. aureus (MRSA) strain sequenced at the Sanger Centre (MRSA252, NRS71) was obtained from NARSA (Network on Antimicrobial Resistance in S. aureus). Methicillin sensitive S. aureus (ATCC 29213 and 25923), methicillin resistant S. aureus (ATCC BAA-1762), and Salmonella typhimurium (ATCC BAA-185) were obtained from ATCC, The Global Bioresource Center. Acinetobacter baumannii (ATCC 19606 and ATCC 17978), Klebsiella pneumonia (C238), vancomycin resistant Enterococci #2 (2010A) (VRE#2), MRSA (USA400, MW2) and Pseudomonas aeruginosa (PA0-1) were obtained from the laboratory of Dr B. B. Finlay at the University of British Columbia (Vancouver, Canada).
The antimicrobial activities of PK inhibitor candidates were determined using the 96-well microtiter standard 2-fold serial broth microdilution method as described by CLSI (formerly NCCLS) with the various gram-positive and gram-negative bacteria species mentioned above. Bacteria from a single colony were grown, overnight in either BHI Broth (VRE), mueller hinton broth (S. aureus 29213; MRSA USA400, A. baumannii 19606, MRSA BAA-1762) or L-broth (P. aeruginosa, S. typhimurium, K. pneumonia and A. baumannii 17978). […] Culture plates were incubated for 18-24 h at 37° C., and optical density at 600 nm (OD600) was measured using a Benchmark Plus™ microplate spectrophotometer (Bio-Rad™). The absorbance control values for the series containing CAMHB and inhibitor were subtracted as background from the corresponding infected wells. Minimal inhibitory concentration (MIC) was defined as the lowest concentration of test compound leading to complete inhibition of cell growth in relation to compound-free control wells as determined by optical density. Vancomycin, methicillin and ciprofloxicin were used as reference compounds. All assays were run in triplicate or duplicate. Experiments were replicated at least twice to verify reproducibility using the above conditions.

MRSA Pyk = molecular target: T1, MRSA Pyk (Staphylococcus aureus, UniProt Q6GG09); assay: MRSA pyruvate kinase (PK) activity, continuous LDH-coupled assay; assay type: biochemical, methicillin resistant S. aureus (MRSA252)
T1 construct: made in house; host or cells: E. coli BL-21 (DE3)
Text: Genomic DNA of MRSA strain Sanger 252 extracted using DNeasy Tissue Kit™ (Qiagen™) was used as a template to generate the His-tagged MRSA PK. Human cDNA from MCF-7 breast cancer cell line (courtesy of Dr. J Wong, BC Cancer Research Center (Vancouver, Canada)) was used as a template to generate the full-length human M2 PK enzyme. The following primer sets were used creating appropriate restriction sites (NdeI and XhoI sites underlined): For cloning of MRSA PK: M27F 5′-[…]-3′ and M27R 5′-[…]-3′, for cloning of human M2 PK isoform: hM2F 5′-[…]-3′ and hM2R 5′-[…]-3′. The resulting PCR fragments for each construct were cloned into the NdeI and XhoI unique sites of the bacterial expression vector pET-28a (+) (Novagen™). […] The sequence and the correct reading frame of all constructs were verified by sequencing. Human M1, R and L PK constructs in pET-28-a(+) vectors (courtesy of Dr. L. Cantley, Harvard Medical, School (Boston, USA)) were used to generate relevant recombinant His-tagged human PK isoforms.
MRSA and human constructs in pET-28a(+) were used to express relevant recombinant PK proteins in E. coli BL-21 (DE3). The proteins were expressed and purified using Ni-NTA agarose (Qiagen™) according to the manufacturer's protocol. Briefly, cells were grown to an absorbance of 0.4-0.5 at 600 nm in 2×YT medium, then induced with 0.1 mM IPTG for 3 h at 20° C. Cells were lysed by sonication on ice (3×10-s bursts with a 30-s recovery between bursts) in lysis buffer (0.2 mg/ml lysozyme, 50 mM Tris pH 7.5, 10 mM MgCl2, 200 mM NaCl, 100 mM KCl, 10% glycerol, 10 mM imidazole, 0.5% NP-40 and 1 mM DTT containing Complete™ protease inhibitor). Cell lysates were cleared by centrifugation (18,000×g in a Beckman™ JA-20 rotor) for 20 min at 4° C. and PK isoforms were purified by batch binding to Ni-NTA resin. The resins were then packed in columns (1×2 cm) and washed with 400 column volumes lysis buffer containing 30 mM imidazole. His-tagged PK isoforms were eluted with the same buffer containing 300 mM imidazole. The proteins were dialyzed overnight at 4° C. against 2000 volumes of ice-cold 30 mM Tris pH 7.5, 25 mM KCl, 5 mM MgCl2, 10% glycerol and 1 mM DTT to remove imidazole. All purification steps were done at 4° C.; enzymes were flash-frozen and stored at −70° C. Enzymatic activity of frozen protein preparations was stable for at least 10 months and up to 5 freeze/thaw cycles. Purity and physical integrity of proteins were assessed using SDS-polyacrylamide gel electrophoresis (SDS-PAGE) followed by coomassie blue staining. Protein concentration was estimated by Bradford assay (Bio-Rad Protein Assay™) using bovine serum albumin as a standard.
Candidate MRSA PK inhibitors were assayed for their ability to inhibit enzymatic activities of MRSA and human PKs. PK activity was determined using a continuous assay coupled to lactate dehydrogenase (LDH) in which the change in absorbance at 340 nm owing to oxidation of NADH was measured using a Benchmark Plus™ microplate spectrophotometer (Bio-Rad Laboratories, Hercules, Calif.). […] Reactions were initiated by the addition of 15 nM of one of the PK enzymes. PK activity proportional to the rate of change at 340 nm was expressed as specific activity (μmol/min/mg), which is defined as the amount of PK that catalyzes the formation of one micromole of either product per minute. Inhibitors were dissolved in DMSO with the final concentration of the solvent never exceeding 1% of the assay volume. IC50 values were calculated by curve fitting on a four-parameter dose-response model with variable slope using Graphpad Prism 5.0™ (GraphPad™ Software Inc., La Jolla, Calif.). In all studies, less than 10% of total PEP was exhausted during the reaction. Reactions were performed at 30° C. for up to 5 min. All values determined represent at least two measurements, in triplicate (Tables 1-6) or duplicate unless mentioned otherwise. […]

[1] = S. aureus ATCC29213, 18-24 h, 37 C, read-out: Antimicrobial activity (MIC) S. aureus ATCC29213

T1 sequence (Q6GG09 whole entry): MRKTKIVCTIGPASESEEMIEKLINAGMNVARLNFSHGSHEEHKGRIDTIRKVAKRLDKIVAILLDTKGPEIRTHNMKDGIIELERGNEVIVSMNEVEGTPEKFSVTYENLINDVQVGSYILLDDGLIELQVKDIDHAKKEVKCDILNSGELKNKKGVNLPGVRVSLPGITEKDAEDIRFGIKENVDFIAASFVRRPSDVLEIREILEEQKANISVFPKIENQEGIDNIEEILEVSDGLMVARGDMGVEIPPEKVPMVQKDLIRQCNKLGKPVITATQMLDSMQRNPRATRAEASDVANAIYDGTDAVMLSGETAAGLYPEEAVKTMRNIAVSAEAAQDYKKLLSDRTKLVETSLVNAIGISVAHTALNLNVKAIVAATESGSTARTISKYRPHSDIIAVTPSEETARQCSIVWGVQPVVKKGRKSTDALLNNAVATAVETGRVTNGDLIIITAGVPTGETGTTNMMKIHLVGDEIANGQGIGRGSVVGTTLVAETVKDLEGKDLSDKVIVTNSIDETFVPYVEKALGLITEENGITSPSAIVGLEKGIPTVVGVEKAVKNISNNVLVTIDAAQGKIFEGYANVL

| SMILES | MIC (S. aureus (ATCC29213); [1]) | pIC50 (MRSA Pyk) | MIC (S. aureus (ATCC29213); ATCC29213, read-out: Antimicrobial activity (MIC) S. aureus ATCC29213) |
| --- | --- | --- | --- |
| OC(c1c(/C=C/c2ccc(Cl)cc2)[nH]c2cc(Br)ccc12)(C(F)(F)F)C(F)(F)F [Compound 13, (E)-2-(6-Bromo-2-(4-chlorostyryl)-1H-indol-3-yl)-1,1,1,3,3,3-hexafluoropropan-2-ol] | 1 µg/mL (≈ 2.01 µM) | 6.00 to 7.00 | – |
| O=C(c1c(/C=C/c2ccc(Cl)cc2)[nH]c2cc(Br)ccc12)C1CCOCC1 [Compound 1, (E)-(6-Bromo-2-(4-chlorostyryl)-1H-indol-3-yl)(tetrahydro-2H-pyran-4-yl)methanone] | > 64 µg/mL | > 7.00 | – |
| OC(c1c(CCc2ccc(Cl)cc2)[nH]c2cc(Br)ccc12)C(F)(F)F (centres unmarked) [Compound 17] | 2 µg/mL (≈ 4.62 µM) | 6.00 to 7.00 | – |
| O=C(CCN1CCOCC1)c1c(/C=C/c2cn3ccccc3n2)[nH]c2cc(Br)ccc12 [Compound 10, (E)-1-(6-Bromo-2-(2-(imidazo[1,2-a]pyridin-2-yl)vinyl)-1H-indol-3-yl)-3-morpholinopropan-1-one] | > 64 µg/mL | 6.00 to 7.00 | – |
| CN(C)CCNC(=O)c1c(/C=C/c2cc(Cl)cc(Cl)c2)[nH]c2cc(Br)ccc12 [Compound 34, (E)-6-Bromo-2-(3,5-dichlorostyryl)-N-(2-(dimethylamino)ethyl)-1H-indole-3-carboxamide] | 16 µg/mL (≈ 33.2 µM) | < 6.00 | – |
| CN(C)C(=O)c1c(CCc2ccc(Cl)cc2)[nH]c2cc(Br)ccc12 [Compound 50, 6-Bromo-2-(4-chlorophenethyl)-N,N-dimethyl-1H-indole-3-carboxamide] | > 64 µg/mL | < 6.00 | – |
| O=C(c1c(-c2cc3ccccc3s2)[nH]c2cc(Br)ccc12)N1CCOCC1 [Compound 75] | > 64 µg/mL | < 6.00 | – |
| CS(=O)(=O)OCCOc1cc2[nH]c(-c3cc4ccc(Br)cc4[nH]3)cc2cc1Cl [Compound 198, 2-((6′-Bromo-5-chloro-1H,1′H-[2,2′-biindol]-6-yl)oxy)ethyl Methanesulfonate] | – | > 7.00 | > 64 µg/mL |
| OC(c1c(CCc2ccc(Cl)cc2)[nH]c2cc(Br)ccc12)(C(F)(F)F)C(F)(F)F [Compound 14, 2-(6-Bromo-2-(4-chlorophenethyl)-1H-indol-3-yl)-1,1,1,3,3,3-hexafluoropropan-2-ol] | 1 µg/mL (≈ 2 µM) | 6.00 to 7.00 | – |
| O=C(NCCO)c1c(/C=C/c2ccc(Cl)cc2)[nH]c2cc(Br)ccc12 [Compound 28, (E)-6-Bromo-2-(4-chlorostyryl)-N-(2-hydroxyethyl)-1H-indole-3-carboxamide] | > 64 µg/mL | 6.00 to 7.00 | – |
| O=C(O)C(=O)c1c(/C=C/c2ccc(Cl)cc2)[nH]c2cc(Br)ccc12 [Compound 85, (E)-2-(6-bromo-2-(4-chlorostyryl)-1H-indol-3-yl)-2-oxoacetic Acid] | > 64 µg/mL | 6.00 to 7.00 | – |
| ON=C(c1c(CCc2ccc(Cl)cc2)[nH]c2cc(Br)ccc12)C(F)(F)F (racemic) [Compound 46, 1-(6-Bromo-2-(4-chlorophenethyl)-1H-indol-3-yl)-2,2,2-trifluoroethanone Oxime] | 1 µg/mL (≈ 2.24 µM) | < 6.00 | – |
| O=C(O)CCNC(=O)c1c(/C=C/c2ccc(Cl)cc2)[nH]c2cc(Br)ccc12 [Compound 39, (E)-3-(6-Bromo-2-(4-chlorostyryl)-1H-indole-3-carboxamido)propanoic Acid] | > 64 µg/mL | > 7.00 | – |
| CN(C)CCNC(=O)c1c(C(=O)Nc2ccc(Cl)cc2)[nH]c2cc(Br)ccc12 [Compound 81, 6-Bromo-N2-(4-chlorophenyl)-N3-(2-(dimethylamino)ethyl)-1H-indole-2,3-dicarboxamide] | > 64 µg/mL | > 7.00 | – |
| O=C(c1ccccc1)c1c(/C=C/c2ccc(Cl)cc2)[nH]c2cc(Br)ccc12 [Compound 3, (E)-(6-Bromo-2-(4-chlorostyryl)-1H-indol-3-yl)(phenyl)methanone] | 16 µg/mL (≈ 36.6 µM) | > 7.00 | – |
| COc1ccc(/C=C/c2[nH]c3cc(Br)ccc3c2C(=O)NCCO)nc1 [Compound 35, (E)-6-Bromo-N-(2-hydroxyethyl)-2-(2-(5-methoxypyridin-2-yl)vinyl)-1 H-indole-3-carboxamide] | > 64 µg/mL | 6.00 to 7.00 | – |
| NC(=O)[C@@H]1CCCN1CCCCNC(=O)c1c(-c2cc3cc(Cl)ccc3[nH]2)[nH]c2cc(Br)ccc12 [Compound 116, (S)-6-Bromo-N-(4-(2-carbamoylpyrrolidin-1-yl)butyl)-5′-chloro-1H,1′H-[2,2′-biindole]-3-carboxamide] | > 64 µg/mL | > 7.00 | – |
| O=C(NC1CN2CCC1CC2)c1c(/C=C/c2ccc(Cl)cc2)[nH]c2cc(Br)ccc12 (centres unmarked) [Compound 26, (E)-6-Bromo-2-(4-chlorostyryl)-N-(quinuclidin-3-yl)-1H-indole-3-carboxamide] | 8 µg/mL (≈ 16.5 µM) | 6.00 to 7.00 | – |
| CC(C)(C)OC(=O)N1CCN(CCNC(=O)c2c(C(=O)Nc3ccc(Cl)cc3)[nH]c3cc(Br)ccc23)CC1 [Compound 78, tert-Butyl 4-(2-(6-bromo-2-((4-chlorophenyl)carbamoyl)-1H-indole-3-carboxamido)ethyl)piperazine-1-carboxylate] | > 64 µg/mL | > 7.00 | – |
| O=C(NC1CCNCC1)c1c(/C=C/c2ccc(Cl)cc2)[nH]c2cc(Br)ccc12 [Compound 53, (E)-6-Bromo-2-(4-chlorostyryl)-N-(piperidin-4-yl)-1H-indole-3-carboxamide] | 8 µg/mL (≈ 17.4 µM) | > 7.00 | – |
| O=C(c1c(/C=C/c2ccc(Cl)cc2)[nH]c2cc(Br)ccc12)N1CCOCC1 [Compound 22, (E)-(6-Bromo-2-(4-chlorostyryl)-1H-indol-3-yl)(morpholino)methanone] | > 64 µg/mL | > 7.00 | – |
| O=C(c1c(-c2cc3ccccc3[nH]2)[nH]c2cc(Br)ccc12)N1CCOCC1 [Compound 76, (6-Bromo-1H,1′H-[2,2′-biindol]-3-yl)(morpholino)methanone] | > 64 µg/mL | < 6.00 | – |
